Patent publication US20260191863A1, “PYRROLOPYRIMIDINE COMPOSITIONS FOR TREATMENT OF ITK MEDIATED CONDITIONS” (ACLARIS THERAPEUTICS, INC., priority 2022, published 2026)
Several values for one entry are separate records, joined by “and”; a condition that tells them apart may be missing. Equal entries are not always repeated. Where two headings read alike, the source gives them in different places.

Tests used:
[1] = Phase 1 SAD study: safety and tolerability; type: in vivo, human
Experimental: Primary Endpoints—Number and percentage of adverse events (AEs) and serious adverse events (SAEs); mean change from baseline in laboratory values, vital signs, and electrocardiograms (ECGs) abnormalities.
(§1) Type of Study—This was an FIH, randomized, observer-blind, placebo-controlled study designed to evaluate the safety, tolerability, PK, and PD of Compound I in healthy subjects. The study consisted of: single ascending dose (SAD) cohorts (1-80 mg/day) plus formulation bridging and food effect (FE) cohorts.
(§2) Approximately 64 male and female subjects were enrolled into 8 planned cohorts in the SAD study. In each cohort, a total of 8 subjects were randomized to receive a single oral capsule dose of Compound I (n=6) or placebo (n=2) in the morning with approximately 240 mL of water after an overnight fast of at least 8 hours.

[2] = Phase 1 single ascending dose (SAD) study: pharmacokinetics, food effect, formulation bridging; type: in vivo, human; conditions: for AUC(0-t): read-out: AUC0-24; for Vd/F: read-out: Vz/F
Experimental: as §1, §2
Cohort 4 was an FE (food effect) cohort where subjects received Compound I capsules or placebo, fasted on Day 1 and Compound I or placebo after a high-fat, high-calorie breakfast on Day 8 after a 7-day washout period.
Cohort 5 was a formulation bridging cohort where subjects will receive Compound I capsules or placebo on Day 1 and Compound I tablets or placebo on Day 8 after a 7-day washout period.
The dosage form of Compound I in Cohorts 6, 7, and 8 were capsules and the subjects will receive a single oral dose of Compound I (n=6) capsules or placebo (n=2) on Day 1 after an overnight fast of at least 8 hours.

ITK (IFNγ mRNA) = assay: SAD ex vivo PD: αCD3/αCD28 stimulated IFNγ mRNA production; type: in vivo; conditions: Homo sapiens; SAD study; read-out: Clinical EC50
Description: Secondary Endpoints—Compound I plasma concentrations. Mean change from baseline in ex vivo stimulated pSTAT5 and pSTAT1 (signal transducer and activator of transcription); and in ex vivo stimulated IFNγ mRNA (interferon gamma messenger ribonucleic acid).
Summary of SAD data: FIGS. 4-8 and 9-13 show the SAD dose response, SAD exposure response, and SAD calculated response at Cmax by dose respectively for ITK (IL2 mRNA), ITK (IFNγ mRNA), JAK3 (pSTAT5, lymph), JAK3 (pSTAT5, CD3′ T), and ITK & JAK (IFNγ protein). Clinical and pre-clinical IC50 data for ITK (IL2 mRNA), ITK (IFNγ mRNA), JAK3 (pSTAT5, lymph), JAK3 (pSTAT5, CD3^+ T), and ITK & JAK (IFNγ protein) from the SAD study is shown in table 4.

[3] = system: αCD3 & αCD28 stimulated IL2mRNA; assay: MAD ex vivo PD: αCD3 & αCD28 stimulated IL2 mRNA; type: in vivo; conditions: Homo sapiens
Description: Exploratory Endpoints—Mean change from baseline in cellular, extracellular (secreted), and/or message markers of inflammation.
EC50 and IC50 data for αCD3 & αCD28 stimulated IL2mRNA, IL15 stimulated IFNγ protein, and αCD3 & IL15 stimulated IFNγ protein is shown in table 9.

[4] = both sexes, human, in vivo, po, 1 mg, single oral dose 1 mg, capsule, fasted
[5] = both sexes, human, in vivo, po, 3 mg, single oral dose 3 mg, capsule, fasted
[6] = both sexes, human, in vivo, po, 5 mg, single oral dose 5 mg, capsule, fasted
[7] = both sexes, human, in vivo, po, 15 mg, single oral dose 15 mg, capsule, fasted
[8] = both sexes, human, in vivo, po, 15 mg, single oral dose 15 mg, capsule, fed (high-fat, high-calorie breakfast)
[9] = both sexes, human, in vivo, po, 25 mg, single oral dose 25 mg, capsule, fasted
[10] = both sexes, human, in vivo, po, 25 mg, single oral dose 25 mg, tablet
[11] = both sexes, human, in vivo, po, 50 mg, single oral dose 50 mg, capsule, fasted
[12] = both sexes, human, in vivo, po, 80 mg, single oral dose 80 mg, capsule, fasted
[13] = single oral dose 15 mg, capsule, fasted
[14] = single oral dose 15 mg, capsule, fed (high-fat, high-calorie breakfast)

## C=CC(=O)N1C[C@H](Nc2ncnc3[nH]cc([C@H]4CC4(F)F)c23)CC[C@@H]1C [Compound I, 1-((2S,5R)-5-((5-((R)-2,2-difluorocyclopropyl)-7H-pyrrolo[2,3-d]pyrimidin-4-yl)amino)-2-methylpiperidin-1-yl)prop-2-en-1-one]
[1]; SAD
  Deaths, serious AEs, discontinuations due to AEs: no deaths, serious AEs, or discontinuations due to AEs
  Safety and tolerability conclusion: safe and well tolerated
  Severity of TEAEs: mild and transient
[1]; SAD highest dose group (80 mg)
  Transient increase in CK at follow-up: 2 subjects
  Transient increase in transaminases at follow-up: 1 subject
[1]; SAD, 13 subjects
  Number of TEAEs in Compound I treated subjects: 14
[1]; SAD, during treatment and at follow-up
  Changes in WBC count: No clinically meaningful changes
[2]; 25 mg single dose
  Difference in PK parameters between capsule and tablet formulation: No significant difference
[2]; SAD
  Plasma concentration dose dependence: increased in a dose-dependent manner
  Time to peak plasma concentration after dosing: ≤ 2 h
[2]; SAD, 1-80 mg single dose
  Exposure dose proportionality (Cmax and AUC): dose-proportional
[2]; both sexes, human, in vivo, oral, SAD, 1-80 mg single dose, read-out: Half-life (range across doses)
  half-life: 1.5 to 2.5 h
[2]; both sexes, human, in vivo, oral, SAD, 1-80 mg single dose, read-out: Tmax (range across doses)
  Tmax: 0.7 to 1.2 h
[2]; [4]
  AUC(0-inf): 5.95 ng·h/mL
  Cmax: 2.71 ng/mL
  AUC(0-t): 5.95 ng·h/mL
  Vd/F: 384 L
[2]; both sexes, human, in vivo, po, 1 mg, single oral dose 1 mg, capsule, fasted, read-out: T1/2 (converted)
  half-life: 1.51 h
[2]; both sexes, human, in vivo, po, 1 mg, single oral dose 1 mg, capsule, fasted, read-out: Tmax
  Tmax: 0.674 h
[2]; [5]
  AUC(0-inf): 15.8 ng·h/mL
  Cmax: 5.9 ng/mL
  AUC(0-t): 15.4 ng·h/mL
  Vd/F: 419 L
[2]; both sexes, human, in vivo, po, 3 mg, single oral dose 3 mg, capsule, fasted, read-out: T1/2 (converted)
  half-life: 1.53 h
[2]; both sexes, human, in vivo, po, 3 mg, single oral dose 3 mg, capsule, fasted, read-out: Tmax
  Tmax: 0.757 h
[2]; [6]
  AUC(0-inf): 33.5 ng·h/mL
  Cmax: 11.9 ng/mL
  AUC(0-t): 33.1 ng·h/mL
  Vd/F: 331 L
[2]; both sexes, human, in vivo, po, 5 mg, single oral dose 5 mg, capsule, fasted, read-out: T1/2 (converted)
  half-life: 1.53 h
[2]; both sexes, human, in vivo, po, 5 mg, single oral dose 5 mg, capsule, fasted, read-out: Tmax
  Tmax: 1.07 h
[2]; [7]
  AUC(0-inf): 96.7 ng·h/mL
  Cmax: 31.5 ng/mL
  AUC(0-t): 95.7 ng·h/mL
  Vd/F: 360 L
[2]; both sexes, human, in vivo, po, 15 mg, single oral dose 15 mg, capsule, fasted, read-out: T1/2 (converted)
  half-life: 1.61 h
[2]; both sexes, human, in vivo, po, 15 mg, single oral dose 15 mg, capsule, fasted, read-out: Tmax
  Tmax: 1 h
[2]; [8]
  AUC(0-inf): 93.9 ng·h/mL
  Cmax: 17.6 ng/mL
  AUC(0-t): 105 ng·h/mL
  Vd/F: 399 L
[2]; both sexes, human, in vivo, po, 15 mg, single oral dose 15 mg, capsule, fed (high-fat, high-calorie breakfast), read-out: T1/2 (converted)
  half-life: 1.73 h
[2]; both sexes, human, in vivo, po, 15 mg, single oral dose 15 mg, capsule, fed (high-fat, high-calorie breakfast), read-out: Tmax
  Tmax: 5 h
[2]; [9]
  AUC(0-inf): 154 ng·h/mL
  Cmax: 47 ng/mL
  AUC(0-t): 153 ng·h/mL
  Vd/F: 366 L
[2]; both sexes, human, in vivo, po, 25 mg, single oral dose 25 mg, capsule, fasted, read-out: T1/2 (converted)
  half-life: 1.57 h
[2]; both sexes, human, in vivo, po, 25 mg, single oral dose 25 mg, capsule, fasted, read-out: Tmax
  Tmax: 1.35 h
[2]; [10]
  AUC(0-inf): 199 ng·h/mL
  Cmax: 63.6 ng/mL
  AUC(0-t): 197 ng·h/mL
  Vd/F: 317 L
[2]; both sexes, human, in vivo, po, 25 mg, single oral dose 25 mg, tablet, read-out: T1/2 (converted)
  half-life: 1.75 h
[2]; both sexes, human, in vivo, po, 25 mg, single oral dose 25 mg, tablet, read-out: Tmax
  Tmax: 1.07 h
[2]; [11]
  AUC(0-inf): 428 ng·h/mL
  Cmax: 143 ng/mL
  AUC(0-t): 426 ng·h/mL
  Vd/F: 310 L
[2]; both sexes, human, in vivo, po, 50 mg, single oral dose 50 mg, capsule, fasted, read-out: T1/2 (converted)
  half-life: 1.84 h
[2]; both sexes, human, in vivo, po, 50 mg, single oral dose 50 mg, capsule, fasted, read-out: Tmax
  Tmax: 1.24 h
[2]; [12]
  AUC(0-inf): 676 ng·h/mL
  Cmax: 196 ng/mL
  AUC(0-t): 675 ng·h/mL
  Vd/F: 432 L
[2]; both sexes, human, in vivo, po, 80 mg, single oral dose 80 mg, capsule, fasted, read-out: T1/2 (converted)
  half-life: 2.53 h
[2]; both sexes, human, in vivo, po, 80 mg, single oral dose 80 mg, capsule, fasted, read-out: Tmax
  Tmax: 1.22 h
[2]; single 15 mg dose
  Effect of high-calorie, high-fat meal on AUC, bioavailability, T1/2: no significant effect
  Reduction of Cmax by a high-calorie, high-fat meal: 31%
[2]; single oral dose 1 mg, capsule, fasted
  CL/F: 168 L/h
[2]; single oral dose 3 mg, capsule, fasted
  CL/F: 190 L/h
[2]; single oral dose 5 mg, capsule, fasted
  CL/F: 149 L/h
[2]; [13]
  CL/F: 155 L/h
  Tmax: 1.09 h
[2]; [14]
  CL/F: 160 L/h
  Tmax: 4.99 h
[2]; single oral dose 25 mg, capsule, fasted
  CL/F: 162 L/h
[2]; single oral dose 25 mg, tablet
  CL/F: 126 L/h
[2]; single oral dose 50 mg, capsule, fasted
  CL/F: 117 L/h
[2]; single oral dose 80 mg, capsule, fasted
  CL/F: 118 L/h
[2]; up to 80 mg single dose
  PK profile (linearity, absorption): PK was linear and absorption was fast
ITK (IFNγ mRNA)
  EC50: 12.7 nM
[3]
  EC50: 0.0019 µg/mL and 5.3 nM
